# Measurements taken from patent US20120128630A1, “1-(6 MEMBERS AZO-HETEROCYCLIC)-PYRROLIN-2-ONE COMPOUNDS AS INHIBITORS OF HEPATITIS C NS5B POLYMERASE, THE PHARAMACEUTICAL COMPOSITION THEREOF AND THEIR THERAPEUTIC USE” (priority 2009, published 2012).
# Biological target: T1, HCV NS5B genotype 1b (Hepatitis C virus genotype 1b, UniProt Q9WMX2)
# T1 construct: The protein was expressed with a 21 amino acid C-terminal deletion to remove transmembrane domain; expressed in transfected cells; host or cells: Huh-7
# Test: 3D-SCREEN assay (NS5B 3D-Screen platform, luciferase reporter gene)
# Type: cell-based
# Conditions: EC50_3DS_NS5B, Table 1, 3D-SCREEN assay results; Huh-7 cells, 24 hours with compound, firefly luciferase reporter
# Source text: cDNA encoding HCV NS5B genotype 1b, was cloned in frame with Gal4-DNA Binding Domain. The protein was expressed with a 21 amino acid C-terminal deletion to remove transmembrane domain. Expression of NS5BΔ21/Gal4 DBD fusion protein was under control of SV40 early promoter. 3D-Sensor peptide was cloned in frame with VP16 activation domain. Expression of 3D-Sensor/VP16 AD fusion protein was under control of CMV promoter. Expression of the firefly luciferase reporter gene was inducible by the [Target protein/conformation sensitive peptide/VP16AD] complex.
# It is a single-target, cell based assay. Briefly, expression of a reporter gene depends on the interaction of a short peptide, thereafter named 3D-Sensor, and native conformation of the target protein. Whenever the conformation of the target protein is modified, interaction between 3D-sensor and target protein is disrupted and reporter gene is not expressed anymore. Conformation modifiers are identified by loss of expression of reporter gene. NS5B 3D-Screen platform was generated in Huh-7 cell lines by transient transfection of three expression vectors encoding respectively
# (i) HCV NS5BΔ21/Gal4-DBD fusion protein
# (ii) the 3D-sensor peptide I4/VP16 fusion protein
# (iii) the firefly luciferase reporter gene
# Huh-7 cells were dissociated the day before transfection and seeded in T175 flasks at a density of 10^7 cells in 30 ml culture medium. Equimolar ratios of vectors were transfected in cell according to optimized jetPEI transfection protocol (PolyPlus Transfection, Illkirch, France) and 10 μg total DNA/10^6 cells. Transfection was performed for 2 hours at 37° C. and 5% CO2 in a humidified atmosphere. After two hours cells were dissociated and seeded in 96 wells plates at a density of 25,000 cells per well and 90 μl culture medium. 10 μl of compounds to be tested were added 2 hours after seeding. Final concentration of DMSO was 1%. Cells were incubated in the presence of compounds for 24 hours after which expression of firefly luciferase reporter gene was quantified. Briefly, culture medium was removed and cells were lysed by addition of 100 μl of lysis buffer containing 125 mM Tris Phosphate ph 7.8, 10 mM EDTA, 5 mM DTT, 50% glycerol and 5% Triton. Plates were vortexed 10 min at 1300 rpm. Cell lysat was transferred in OpaqueWhite Assay 96 well Flat Bottom plates. 100 μl of luciferin solution 1× were added to each well. Luciferin solution contained 40 mM Tris Phosphate ph 7.8, 0.2 mM EDTA, 67 mM DTT, 2.14 mM MgCl2, 5.4 mM MgSO4, 4.7×10^−4 M luciferin, 5.3×10^−4 M ATP and 2.7×10^−4 M Acetyl co enzyme A. Luminescence was immediately measured with Berthold Microlumat Plus LB 96V luminometer with an integration of 0.5 sec. Inhibition was calculated using the formula: % inhibition=(1−(read/average max))*100. Average max=signal in absence of compound
row,Compound,EC50 [µM]
1,"CON=C(C1=C(O)C(=O)N(c2ccc(C)nn2)C1c1ccc(C(C)C)cc1)c1ccc(C)cc1 (mixture of isomers) [Example 53, 3-hydroxy-5-(4-isopropyl-phenyl)-4-(methoxyimino-p-tolyl-methyl)-1-(6-methyl-pyridazin-3-yl)-1,5-dihydro-pyrrol-2-one]",5
2,"Cc1ccc(C(=O)C2=C(O)C(=O)N(c3ccc(C#N)cn3)C2c2ccc(C(C)C)cc2)cc1 (stereo not shown) [Example 7, 6-[3-hydroxy-5-(4-isopropyl-phenyl)-4-(4-methyl-benzoyl)-2-oxo-2,5-dihydro-pyrrol-1-yl]-nicotinonitrile]",9
3,"Cc1ccc(C(=O)C2=C(O)C(=O)N(c3cccnn3)C2c2ccc(C(C)C)cc2)cc1 (stereo not shown) [Example 9, 3-hydroxy-5-(4-isopropyl-phenyl)-4-(4-methyl-benzoyl)-1-pyridazin-3-yl-1,5-dihydro-pyrrol-2-one]",7
4,"COc1ccc(C(=O)C2=C(O)C(=O)N(c3ccc(C)nn3)C2c2ccc(C(C)(C)C)cc2)cc1 (stereo not shown) [Example 10, 5-(4-tert-butyl-phenyl)-3-hydroxy-4-(4-methoxy-benzoyl)-1-(6-methyl-pyridazin-3-yl)-1,5-dihydro-pyrrol-2-one]",3
5,"Cc1ccc(C(=O)C2=C(O)C(=O)N(c3ccc(C)nn3)C2c2cccc(C(C)C)c2)cc1 (stereo not shown) [Example 29, 3-hydroxy-5-(3-isopropyl-phenyl)-4-(4-methyl-benzoyl)-1-(6-methyl-pyridazin-3-yl)-1,5-dihydro-pyrrol-2-one]",6
6,"Cc1ccc(N2C(=O)C(O)=C(C(=O)c3ccc(N(C)C)cc3)C2c2ccc(C(C)C)cc2)nn1 (stereo not shown) [Example 35, 4-(4-dimethylamino-benzoyl)-3-hydroxy-5-(4-isopropyl-phenyl)-1-(6-methyl-pyridazin-3-yl)-1,5-dihydro-pyrrol-2-one]",3
7,"Cc1ccc(C(=O)C2=C(O)C(=O)N(c3ccc(C)nn3)C2c2ccc(-c3ccccc3)cc2)cc1 (stereo not shown) [Example 42, 5-biphenyl-4-yl-3-hydroxy-4-(4-methyl-benzoyl)-1-(6-methyl-pyridazin-3-yl)-1,5-dihydro-pyrrol-2-one]",4
8,"Cc1ccc(N2C(=O)C(O)=C(C(=O)c3ccc(C(C)C)cc3)C2c2ccc(C(C)C)cc2)nc1 (stereo not shown) [Example 44, 3-hydroxy-4-(4-isopropyl-benzoyl)-5-(4-isopropyl-phenyl)-1-(5-methyl-pyridin-2-yl)-1,5-dihydro-pyrrol-2-one]",2
9,"Cc1ccc(N2C(=O)C(O)=C(C(=O)c3ccc(C(C)C)cc3)C2c2ccc(-c3ccccc3)cc2)nn1 (stereo not shown) [Example 45, 5-biphenyl-4-yl-3-hydroxy-4-(4-isopropyl-benzoyl)-1-(6-methyl-pyridazin-3-yl)-1,5-dihydro-pyrrol-2-one]",4
10,"Cc1ccc(N2C(=O)C(O)=C(C(=O)c3ccc(N(C)C)cc3)C2c2ccc(OC(F)(F)F)cc2)nn1 (stereo not shown) [Example 49, 4-(4-dimethylamino-benzoyl)-3-hydroxy-1-(6-methyl-pyridazin-3-yl)-5-(4-trifluoromethoxy-phenyl)-1,5-dihydro-pyrrol-2-one]",1

# Same assay, conditions: EC50_3DS_NS5B, Table 2, titled Replicon assay results
row,Compound,EC50 [µM]
1,"Cc1ccc(N2C(=O)C(O)=C(C(=O)c3ccc(C(F)(F)F)cc3)C2c2ccc(C(F)(F)F)cc2)nn1 (stereo not shown) [Example 95, 3-hydroxy-1-(6-methyl-pyridazin-3-yl)-4-(4-trifluoromethyl-benzoyl)-5-(4-trifluoromethyl-phenyl)-1,5-dihydro-pyrrol-2-one]",< 10
2,"COc1ccc(C(=O)C2=C(O)C(=O)N(c3ccc(C)nn3)C2c2ccc(OC(C)C)cc2)cc1 (stereo not shown) [Example 100, 3-hydroxy-5-(4-isopropoxy-phenyl)-4-(4-methoxy-benzoyl)-1-(6-methyl-pyridazin-3-yl)-1,5-dihydro-pyrrol-2-one]",< 10
3,"Cc1ccc(N2C(=O)C(O)=C(C(=O)c3ccc(OC(C)C)cc3)C2c2ccc(OC(C)C)cc2)nn1 (stereo not shown) [Example 109, 3-hydroxy-4-(4-isopropoxy-benzoyl)-5-(4-isopropoxy-phenyl)-1-(6-methyl-pyridazin-3-yl)-1,5-dihydro-pyrrol-2-one]",< 10
4,"Cc1ccc(N2C(=O)C(O)=C(C(=O)c3ccc(C(C)C)cc3)C2c2ccc(CC(C)C)cc2)nn1 (stereo not shown) [Example 136, 3-hydroxy-5-(4-isobutyl-phenyl)-4-(4-isopropyl-benzoyl)-1-(6-methyl-pyridazin-3-yl)-1,5-dihydro-pyrrol-2-one]",< 10
5,"Cc1ccc(N2C(=O)C(O)=C(C(=O)c3ccc(C(C)C)cc3)C2c2ccc(Br)cc2)nn1 (stereo not shown) [Example 172, 5-(4-bromo-phenyl)-3-hydroxy-4-(4-isopropyl-benzoyl)-1-(6-methyl-pyridazin-3-yl)-1,5-dihydro-pyrrol-2-one]",< 1
6,"Cc1ccc(N2C(=O)C(O)=C(C(=O)c3ccc(C(C)C)cc3)C2c2ccc(SC(C)C)cc2)nn1 (stereo not shown) [Example 173, 3-hydroxy-4-(4-isopropyl-benzoyl)-5-(4-isopropylsulfanyl-phenyl)-1-(6-methyl-pyridazin-3-yl)-1,5-dihydro-pyrrol-2-one]",< 1
7,"Cc1ccc(N2C(=O)C(O)=C(C(=O)c3ccc(C#N)cc3)C2c2ccc(OC(F)(F)F)cc2)nn1 (stereo not shown) [Example 176, 4-[4-hydroxy-1-(6-methyl-pyridazin-3-yl)-5-oxo-2-(4-trifluoromethoxy-phenyl)-2,5-dihydro-1H-pyrrole-3-carbonyl]-benzonitrile]",< 10
8,"Cc1ccc(N2C(=O)C(O)=C(C(=O)c3ccc(N4CCCC4)cc3)C2c2ccc(OC(C)(F)F)cc2)nn1 (stereo not shown) [Example 183, 5-[4-(1,1-difluoro-ethoxy)-phenyl]-3-hydroxy-1-(6-methyl-pyridazin-3-yl)-4-(4-pyrrolidin-1-yl-benzoyl)-1,5-dihydro-pyrrol-2-one]",< 10
9,"Cc1ccc(N2C(=O)C(O)=C(C(=O)c3ccc(N4CCCC4)cc3)C2c2ccc(OC(F)(F)F)cc2)nn1 (stereo not shown) [Example 184, 3-hydroxy-1-(6-methyl-pyridazin-3-yl)-4-(4-pyrrolidin-1-yl-benzoyl)-5-(4-trifluoromethoxy-phenyl)-1,5-dihydro-pyrrol-2-one]",< 10
10,"Cc1ccc(N2C(=O)C(O)=C(C(=O)c3ccc(C(C)C)cc3)C2c2ccc(Oc3cc(C)on3)cc2)nn1 (stereo not shown) [Example 185, 3-hydroxy-4-(4-isopropyl-benzoyl)-5-[4-(5-methyl-isoxazol-3-yloxy)-phenyl]-1-(6-methyl-pyridazin-3-yl)-1,5-dihydro-pyrrol-2-one]",< 10
11,"Cc1ccc(N2C(=O)C(OC(=O)C(C)C)=C(C(=O)c3ccc(C(C)C)cc3)C2c2ccc(OC(F)(F)F)cc2)nn1 (stereo not shown) [Example 186, Isobutyric acid 4-(4-isopropyl-benzoyl)-1-(6-methyl-pyridazin-3-yl)-2-oxo-5-(4-trifluoromethoxy-phenyl)-2,5-dihydro-1H-pyrrol-3-yl ester]",< 1
12,"Cc1ccc(N2C(=O)C(O)=C(C(=O)c3ccc(C(C)C)cc3)C2c2ccc(C(C)(F)F)nc2)nn1 (stereo not shown) [Example 187, 5-[6-(1,1-difluoro-ethyl)-pyridin-3-yl]-3-hydroxy-4-(4-isopropyl-benzoyl)-1-(6-methyl-pyridazin-3-yl)-1,5-dihydro-pyrrol-2-one]",< 1
13,"Cc1ccc(N2C(=O)C(O)=C(C(=O)c3ccc(C(C)C)cc3)[C@@H]2c2ccc(C(F)(F)F)nc2)nn1 [Example 194, 3-hydroxy-4-(4-isopropyl-benzoyl)-1-(6-methyl-pyridazin-3-yl)-5(S)-(6-trifluoromethyl-pyridin-3-yl)-1,5-dihydro-pyrrol-2-one]",< 10

# Same assay, conditions: Table 2, titled Replicon assay results; read-out: EC50_3DS_NS5B
row,Compound,EC50 [µM]
1,"5-[4-(1,1-difluoro-ethoxy)-phenyl]-3-hydroxy-4-(4-isopropyl-benzoyl)-1-(6-methyl-pyridazin-3-yl)-1,5-dihydro-pyrrol-2-one [Example 174]",< 10

# Same assay, conditions: read-out: EC50_3DS_NS5B; Table 2, titled Replicon assay results
row,Compound,EC50 [µM]
1,"Cc1ccc(N2C(=O)C(O)=C(C(=O)c3ccc(OC(F)(F)F)cc3)C2c2ccc(C(C)C)cc2)cn1 (stereo not shown) [Example 97, 5-[3-hydroxy-5-(4-isopropyl-phenyl)-2-oxo-4-(4-trifluoromethoxy-benzoyl)-2,5-dihydro-pyrrol-1-yl]-2-methyl-pyridinium; chloride]",< 10
